Values joined by “and” are separate entries in the source; they are usually repeats but may differ in a detail not shown here. Identical values can stand only once. Counter-ions that a name gives are not always drawn. Like-named read-outs stand apart in the source and are kept apart here.
Key:
[1] = test system: PC-9 cells; assay: PC-9 growth inhibition assay (cell proliferation, CellTiter-Glo, 72 h); type: cell-based, human; details: Homo sapiens, PC-9, 72 h, cellular proliferation, PC9 cells, single mutant EGFR, read-out: PC9 IC50 (nM) SM
[2] = test system: A431 cells; assay: A431 inhibition assay (cell proliferation, CellTiter-Glo, 72 h); type: cell-based, human; details: Homo sapiens, A-431, 72 h, cellular proliferation, wild type EGFR, read-out: A431 IC50 (nM) WT
[3] = test system: H1975 cells; assay: H1975 inhibition assay (cell proliferation, CellTiter-Glo, 72 h); type: cell-based, human; details: Homo sapiens, NCI-H1975, 72 h, cellular proliferation, double mutant EGFR, read-out: NCI-H1975 IC50 (nM) DM
[4] = molecular target: Wild type EGFR in A431 cells (Homo sapiens, UniProt P00533); details: WT (A431) IC50 nM, cellular EGFR autophosphorylation, A431, 2 h treatment then EGF stimulation 10 min
[5] = molecular target: T1, Exon 19 deletion EGFR (activating single mutant) in PC-9 cells (Homo sapiens, UniProt P00533, DEL746-750); assay: Exon 19 deletion EGFR PC-9 cellular autophosphorylation assay (p-EGFR ELISA); type: cell-based; details: PC9, 2 h treatment, read-out: SM (PC9) IC50
T1 construct: cellular phosphorylation of endogenous p-EGFR; host or cells: PC9 (PC-9) human lung cell line

[6] = molecular target: hERG channel (HEK 293 cell line stably expressing hERG channel) (Homo sapiens, UniProt Q12809); assay: cell-based
[7] = molecular target: T2, L858R/T790M double mutant EGFR in H1975 cells (Homo sapiens, UniProt P00533, L858R/T790M); assay: L858R/T790M double mutant H1975 autophosphorylation inhibition assay (ELISA); type: cell-based; details: cellular EGFR autophosphorylation, H1975, 2 h treatment; read-out: DM (H1975) IC50
T2 construct: endogenous in cells; host or cells: H1975 cells

[8] = Mouse in vivo PK study; details: mouse, plasma, male CD1 mice, 10 mg/kg PO; for half-life: read-out: T1/2 (PO) (converted)
[9] = Mouse in vivo PK study; details: male CD1 mice, 1 mg/kg IV; for F: 10 mg/kg PO; for AUC / clearance / half-life: mouse, plasma; for half-life: read-out: T1/2 (IV) (converted)
Experimental: To determine the drug concentration in plasma of the compounds of the present disclosure following intravenous and oral administration in male CD 1 Mice, pharmacokinetic profile and PK parameters were obtained.
Test animals: healthy male CD1 mice (body weight 20-30 g, 18 mice, free access to food and water), provided by Sibeifu laboratory. […]
Samples collection: the healthy animals were used, weighed the bodyweight and marked at tail and cage card prior to dosing. Blood samples (0.03 mL per time point) were collected from dorsal metatarsal vein at 0.083, 0.25, 0.5, 1, 2, 4, 8, 24 h post dose for IV group and at 0.25, 0.5, 1, 2, 4, 8, 24 h post dose for PO group, the terminal time point was collected from heart (˜0.3 mL). The blood samples were put into the tube with heparin-Na coated and then put on the cold box, centrifuged at 4° C. 4000 g, 5 minutes immediately after collecting all samples per time point to get plasma. The plasma samples were stored in a freezer at −75±15° C. prior to analysis.
The drug concentration was determined by LC/MS/MS method, and the PK parameters were observed as follows.

T1 sequence (P00533 with tags, fused parts or gaps DEL746-750): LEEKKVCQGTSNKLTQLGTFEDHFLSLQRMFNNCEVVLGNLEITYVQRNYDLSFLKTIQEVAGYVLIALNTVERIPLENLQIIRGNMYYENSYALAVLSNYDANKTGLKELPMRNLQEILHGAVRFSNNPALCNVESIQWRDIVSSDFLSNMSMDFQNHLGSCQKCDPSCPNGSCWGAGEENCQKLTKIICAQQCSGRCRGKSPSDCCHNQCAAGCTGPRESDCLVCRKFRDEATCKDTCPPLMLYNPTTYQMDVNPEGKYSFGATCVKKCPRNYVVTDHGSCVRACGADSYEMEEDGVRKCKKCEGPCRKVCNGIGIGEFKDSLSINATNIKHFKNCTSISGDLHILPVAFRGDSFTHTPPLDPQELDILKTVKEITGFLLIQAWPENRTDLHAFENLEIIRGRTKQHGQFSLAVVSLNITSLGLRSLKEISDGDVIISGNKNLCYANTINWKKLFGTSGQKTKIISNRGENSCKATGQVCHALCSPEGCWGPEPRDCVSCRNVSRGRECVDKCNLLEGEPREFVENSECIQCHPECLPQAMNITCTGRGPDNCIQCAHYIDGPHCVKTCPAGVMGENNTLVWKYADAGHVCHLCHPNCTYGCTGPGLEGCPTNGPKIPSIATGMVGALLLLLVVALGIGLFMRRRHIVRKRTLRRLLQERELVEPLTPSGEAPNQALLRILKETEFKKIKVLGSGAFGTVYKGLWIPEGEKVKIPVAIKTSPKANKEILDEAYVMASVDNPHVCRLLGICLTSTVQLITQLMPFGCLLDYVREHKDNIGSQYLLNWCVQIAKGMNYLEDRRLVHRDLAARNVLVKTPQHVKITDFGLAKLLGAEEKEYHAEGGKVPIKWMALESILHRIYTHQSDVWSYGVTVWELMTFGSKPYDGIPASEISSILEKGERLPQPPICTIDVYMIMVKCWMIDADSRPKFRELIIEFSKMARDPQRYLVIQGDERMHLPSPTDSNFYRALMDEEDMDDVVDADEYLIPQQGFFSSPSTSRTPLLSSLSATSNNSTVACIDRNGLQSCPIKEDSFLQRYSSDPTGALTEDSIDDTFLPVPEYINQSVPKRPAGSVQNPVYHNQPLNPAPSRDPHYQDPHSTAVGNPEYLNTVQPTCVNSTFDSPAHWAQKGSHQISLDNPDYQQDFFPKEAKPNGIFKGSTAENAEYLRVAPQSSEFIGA
Chain of Wild type EGFR in A431 cells (P00533 25-1210): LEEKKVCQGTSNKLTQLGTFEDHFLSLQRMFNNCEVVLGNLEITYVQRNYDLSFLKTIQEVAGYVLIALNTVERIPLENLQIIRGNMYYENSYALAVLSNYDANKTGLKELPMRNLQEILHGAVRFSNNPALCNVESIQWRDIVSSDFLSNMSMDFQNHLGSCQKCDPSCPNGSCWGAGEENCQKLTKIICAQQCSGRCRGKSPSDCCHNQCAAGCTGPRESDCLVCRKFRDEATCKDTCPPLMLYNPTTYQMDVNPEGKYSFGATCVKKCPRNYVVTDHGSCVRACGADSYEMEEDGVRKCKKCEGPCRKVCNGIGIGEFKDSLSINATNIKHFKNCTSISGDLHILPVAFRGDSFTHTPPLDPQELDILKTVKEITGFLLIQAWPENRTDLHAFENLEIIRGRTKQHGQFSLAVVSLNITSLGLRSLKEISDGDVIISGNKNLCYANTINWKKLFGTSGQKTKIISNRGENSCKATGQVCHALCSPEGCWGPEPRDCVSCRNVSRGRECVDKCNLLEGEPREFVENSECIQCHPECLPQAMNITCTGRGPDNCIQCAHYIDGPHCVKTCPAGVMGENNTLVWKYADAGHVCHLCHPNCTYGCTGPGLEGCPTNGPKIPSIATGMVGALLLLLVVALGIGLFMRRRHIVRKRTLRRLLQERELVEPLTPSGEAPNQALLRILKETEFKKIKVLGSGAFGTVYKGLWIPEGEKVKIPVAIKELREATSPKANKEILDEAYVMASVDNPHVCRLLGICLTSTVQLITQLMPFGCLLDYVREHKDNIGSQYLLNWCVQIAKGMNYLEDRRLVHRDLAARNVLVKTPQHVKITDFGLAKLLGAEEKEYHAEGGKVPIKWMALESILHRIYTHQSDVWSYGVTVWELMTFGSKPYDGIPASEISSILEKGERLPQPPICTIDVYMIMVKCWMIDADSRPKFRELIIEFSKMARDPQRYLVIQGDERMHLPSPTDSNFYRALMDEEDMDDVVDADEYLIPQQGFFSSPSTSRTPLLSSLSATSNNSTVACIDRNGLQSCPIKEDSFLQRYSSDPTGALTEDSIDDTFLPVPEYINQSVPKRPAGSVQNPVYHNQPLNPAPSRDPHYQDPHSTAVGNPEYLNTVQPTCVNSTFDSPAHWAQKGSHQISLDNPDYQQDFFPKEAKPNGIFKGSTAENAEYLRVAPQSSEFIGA
T2 sequence (P00533 25-1210 T790M/L858R): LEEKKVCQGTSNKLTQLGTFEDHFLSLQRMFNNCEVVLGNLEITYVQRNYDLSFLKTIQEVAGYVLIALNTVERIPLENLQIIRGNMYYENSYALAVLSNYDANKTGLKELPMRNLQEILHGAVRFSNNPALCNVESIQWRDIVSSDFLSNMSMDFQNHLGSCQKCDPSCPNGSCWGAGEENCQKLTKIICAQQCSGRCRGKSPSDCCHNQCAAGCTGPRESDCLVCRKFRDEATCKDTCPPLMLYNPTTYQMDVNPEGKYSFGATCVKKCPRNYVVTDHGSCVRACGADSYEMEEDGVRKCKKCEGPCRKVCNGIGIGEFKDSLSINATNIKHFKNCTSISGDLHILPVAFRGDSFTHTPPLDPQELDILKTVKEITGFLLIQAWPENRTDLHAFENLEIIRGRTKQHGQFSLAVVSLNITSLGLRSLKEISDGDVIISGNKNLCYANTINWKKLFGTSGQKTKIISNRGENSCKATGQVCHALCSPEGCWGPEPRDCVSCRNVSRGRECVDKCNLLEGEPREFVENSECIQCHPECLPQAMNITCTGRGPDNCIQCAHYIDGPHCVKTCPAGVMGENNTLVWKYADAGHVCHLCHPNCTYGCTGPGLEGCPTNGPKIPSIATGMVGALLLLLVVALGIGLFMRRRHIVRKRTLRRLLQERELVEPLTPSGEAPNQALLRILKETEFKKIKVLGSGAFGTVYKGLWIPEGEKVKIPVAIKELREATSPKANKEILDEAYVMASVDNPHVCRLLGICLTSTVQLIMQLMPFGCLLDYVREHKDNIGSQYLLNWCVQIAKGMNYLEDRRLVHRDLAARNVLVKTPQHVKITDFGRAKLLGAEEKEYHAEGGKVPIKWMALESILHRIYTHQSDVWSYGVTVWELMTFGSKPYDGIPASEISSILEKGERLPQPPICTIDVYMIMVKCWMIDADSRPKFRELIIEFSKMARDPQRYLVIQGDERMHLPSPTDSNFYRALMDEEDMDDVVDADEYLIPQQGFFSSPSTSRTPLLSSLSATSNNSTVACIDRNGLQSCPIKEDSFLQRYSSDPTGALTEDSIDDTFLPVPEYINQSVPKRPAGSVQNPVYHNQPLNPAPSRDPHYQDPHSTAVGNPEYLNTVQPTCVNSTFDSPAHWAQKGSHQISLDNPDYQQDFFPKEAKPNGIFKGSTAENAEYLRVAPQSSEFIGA
Chain of hERG channel (HEK 293 cell line stably expressing hERG channel) (Q12809 whole entry): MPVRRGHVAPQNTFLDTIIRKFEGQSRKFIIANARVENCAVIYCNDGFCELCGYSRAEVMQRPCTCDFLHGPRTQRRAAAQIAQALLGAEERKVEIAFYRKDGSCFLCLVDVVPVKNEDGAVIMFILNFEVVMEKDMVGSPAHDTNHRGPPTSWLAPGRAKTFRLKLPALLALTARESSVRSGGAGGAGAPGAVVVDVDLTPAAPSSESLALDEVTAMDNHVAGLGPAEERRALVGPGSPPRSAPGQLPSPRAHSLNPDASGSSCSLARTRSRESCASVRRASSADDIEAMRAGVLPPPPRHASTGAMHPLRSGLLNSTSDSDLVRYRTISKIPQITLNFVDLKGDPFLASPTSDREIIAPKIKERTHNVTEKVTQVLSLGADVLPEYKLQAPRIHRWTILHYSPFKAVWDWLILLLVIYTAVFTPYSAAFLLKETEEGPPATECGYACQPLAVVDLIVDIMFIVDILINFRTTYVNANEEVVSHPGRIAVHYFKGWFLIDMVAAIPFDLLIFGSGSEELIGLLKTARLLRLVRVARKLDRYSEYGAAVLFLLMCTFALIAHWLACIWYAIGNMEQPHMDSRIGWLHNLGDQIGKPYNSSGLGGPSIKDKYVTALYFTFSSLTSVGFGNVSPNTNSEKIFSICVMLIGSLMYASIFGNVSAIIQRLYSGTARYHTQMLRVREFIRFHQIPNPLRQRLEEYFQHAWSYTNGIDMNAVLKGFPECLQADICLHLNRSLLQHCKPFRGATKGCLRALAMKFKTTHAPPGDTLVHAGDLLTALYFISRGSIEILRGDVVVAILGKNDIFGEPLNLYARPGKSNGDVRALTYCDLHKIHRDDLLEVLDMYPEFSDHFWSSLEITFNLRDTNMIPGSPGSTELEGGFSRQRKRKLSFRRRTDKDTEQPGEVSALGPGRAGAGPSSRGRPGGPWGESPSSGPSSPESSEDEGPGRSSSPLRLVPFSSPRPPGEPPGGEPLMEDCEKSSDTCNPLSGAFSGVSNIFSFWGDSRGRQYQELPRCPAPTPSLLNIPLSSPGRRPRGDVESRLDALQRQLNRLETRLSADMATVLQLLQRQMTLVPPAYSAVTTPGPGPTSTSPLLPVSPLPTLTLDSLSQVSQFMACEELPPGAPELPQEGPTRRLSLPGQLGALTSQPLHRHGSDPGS

| IC50 [1] [nM] | IC50 [2] [nM] | IC50 [3] [nM] | IC50 [4] | IC50 [5] | IC50 [7] | AUC [8] [ng·h/mL] | Cmax [8] [ng/mL] | half-life [8] [h] | F [9] [%] | AUC [9] [ng·h/mL] | clearance [9] [mL/min/kg] | half-life [9] [h] | Structure (SMILES) | IC50 [6] [nM] |
| --- | --- | --- | --- | --- | --- | --- | --- | --- | --- | --- | --- | --- | --- | --- |
| 9.24 | 2140 | 11.4 | – | – | – | – | – | – | – | – | – | – | C=CC(=O)Nc1cc(Nc2nccc(-n3nc(N(C)C)c4cnc(C)cc43)n2)c(OC)cc1N(C)CCN(C)C [Example 1, N-(5-((4-(3-(Dimethylamino)-6-methyl-1H-pyrazolo[4,3-c]pyridin-1-yl)pyrimidin-2-yl)amino)-2-((2-(dimethylamino)ethyl)(methyl)amino)-4-methoxyphenyl)acrylamide] | – |
| 4.15 | 1380 | 4.38 | 63.1 nM | 5.15 nM | 2.16 nM | – | – | – | – | – | – | – | C=CC(=O)Nc1cc(Nc2nccc(-c3cc4c(C)c[nH]c4c(C#N)n3)n2)c(OC)cc1N(C)CCN(C)C [Example 3, N-(5-((4-(7-Cyano-3-methyl-1H-pyrrolo[2,3-c]pyridin-5-yl)pyrimidin-2-yl)amino)-2-((2-(dimethylamino)ethyl)(methyl)amino)-4-methoxyphenyl)acryl amide] | 858 |
| 18.6 | 1800 | 11.6 | 327 nM and 464 nM | 27.6 nM and 29.4 nM | 20.7 nM and 38.8 nM | – | – | – | – | – | – | – | C=CC(=O)Nc1cc(Nc2nccc(-n3nc(OC)c4ccccc43)n2)c(OC)cc1N(C)CCN(C)C [Example 8, N-(2-((2-(Dimethylamino)ethyl)(methyl)amino)-4-methoxy-5-((4-(3-methoxy-1H-indazol-1-yl)pyrimidin-2-yl)amino)phenyl)acrylamide] | 2230 |
| 7.67 | 2200 | 3.05 | 140 nM | 10.8 nM | 5.71 nM | 719 | 159 | 3.55 | 23.1 | 249 | 67 | 0.53 | C=CC(=O)Nc1cc(Nc2nccc(-c3cc(C#N)cc4c3cnn4C)n2)c(OC)cc1N(C)CCN(C)C [Example 9, N-(5-((4-(6-Cyano-1-methyl-1H-indazol-4-yl)pyrimidin-2-yl)amino)-2-((2-(dimethylamino)ethyl)(methyl)amino)-4-methoxyphenyl)acrylamide] | 1010 |
| 16.5 | 695 | 12.7 | – | – | – | – | – | – | – | – | – | – | C=CC(=O)Nc1cc(Nc2nccc(-c3cccc4c3cnn4C)n2)c(OC)cc1N(C)CCN(C)C [Example 10, N-(2-((2-(Dimethylamino)ethyl)(methyl)amino)-4-methoxy-5-((4-(1-methyl-1H-indazol-4-yl)pyrimidin-2-yl)amino)phenyl)acrylamide] | – |
| 7.73 | 2530 | 6.51 | – | – | – | 641 | 97 | 5.06 | 29.3 | 153 | 114 | 1.1 | C=CC(=O)Nc1cc(Nc2nccc(-c3cnc4c(c3)c(C)cn4C)n2)c(OC)cc1N(C)CCN(C)C [Example 11, N-(5-((4-(1,3-Dimethyl-1H-pyrrolo[2,3-b]pyridin-5-yl)pyrimidin-2-yl)amino)-2-((2-(dimethylamino)ethyl)(methyl)amino)-4-methoxyphenyl) acrylamide] | 5780 |
| 19.1 | 2430 | 16.8 | 63.6 nM | 11.8 nM | 7.73 nM | – | – | – | – | – | – | – | C=CC(=O)Nc1cc(Nc2nccc(-c3ccc4c(c3)c(C)cn4C)n2)c(OC)cc1N(C)CCN(C)C [Example 12, N-(5-((4-(1,3-Dimethyl-1H-indol-5-yl)pyrimidin-2-yl)amino)-2-((2-(dimethylamino)ethyl)(methyl)amino)-4-methoxyphenyl)acrylamide] | 4080 |
| 4.64 | – | 2.98 | – | – | – | 486 | 63.5 | 6.1 | 17.3 | 169 | 99 | 1.52 | C=CC(=O)Nc1cc(Nc2nccc(-c3cnc4c(c3)c(Cl)cn4C)n2)c(OC)cc1N(C)CCN(C)C [Example 13, N-(5-((4-(3-Chloro-1-methyl-1H-pyrrolo[2,3-b]pyridin-5-yl)pyrimidin-2-yl)amino)-2-((2-(dimethylamino)ethyl)(methyl)amino)-4-methoxyphenyl)acrylamide] | 1650 |
| 0.91 | 97.6 | 1.08 | 19 nM | 1.38 nM | 1.07 nM | – | – | – | – | – | – | – | C=CC(=O)Nc1cc(Nc2nccc(-n3nc(NCC)c4ncccc43)n2)c(OC(F)F)cc1N(C)CCN(C)C [Example 20, N-(4-(Difluoromethoxy)-2-((2-(dimethylamino)ethyl)(methyl)amino)-5-((4-(3-(ethylamino)-1H-pyrazolo[4,3-b]pyridin-1-yl)pyrimidin-2-yl)amino)phenyl)acrylamide] | 500 |
| 3.87 | 566 | 7.35 | – | – | – | – | – | – | – | – | – | – | C=CC(=O)Nc1cc(Nc2nccc(-n3nc(NC)c4ccsc43)n2)c(OC)cc1N(C)CCN(C)C [Example 23, N-(2-((2-(dimethylamino)ethyl)(methyl)amino)-4-methoxy-5-((4-(3-(methylamino)-1H-thieno[2,3-c]pyrazol-1-yl)pyrimidin-2-yl)amino)phenyl)acrylamide] | – |
| 1.57 | 217 | 2.43 | – | – | – | – | – | – | – | – | – | – | C=CC(=O)Nc1cc(Nc2nccc(-n3nc(NC)c4cc(Cl)sc43)n2)c(OC)cc1N(C)CCN(C)C [Example 24, N-(5-((4-(5-chloro-3-(methylamino)-1H-thieno[2,3-c]pyrazol-1-yl)pyrimidin-2-yl)amino)-2-((2-(dimethylamino)ethyl)(methyl)amino)-4-methoxyphenyl)acrylamide] | – |
| 16.2 | 1130 | 12.6 | – | – | – | – | – | – | – | – | – | – | C=CC(=O)Nc1cc(Nc2nccc(-c3cccc4c3ccn4C)n2)c(OC)cc1N(C)CCN(C)C [Example 25, N-(2-((2-(dimethylamino)ethyl)(methyl)amino)-4-methoxy-5-((4-(1-methyl-1H-indol-4-yl)pyrimidin-2-yl)amino)phenyl)acrylamide] | – |
| – | – | 2.26 | – | – | – | 1040 | 99 | 3.65 | 31.4 | 297 | 60.7 | 1.76 | [2H]C([2H])([2H])N(CCN(C)c1cc(OC)c(Nc2nccc(-c3cc(C#N)c4c(c3)c(C)cn4C)n2)cc1NC(=O)C=C)C([2H])([2H])[2H] [Example 27, N-(2-((2-(Bis(methyl-d3)amino)ethyl)(methyl)amino)-5-((4-(7-cyano-1,3-dimethyl-1H-indol-5-yl)pyrimidin-2-yl)amino)-4-methoxyphenyl)acrylamide mesylate] | – |
| 81.4 | 912 | 13.6 | – | – | – | – | – | – | – | – | – | – | C=CC(=O)Nc1cc(Nc2nccc(-c3cc(C#N)c4c(c3)c(C)cn4C)n2)c(OC)cc1NCCN(C)C [Example 28, N-(5-((4-(7-cyano-1,3-dimethyl-1H-indol-5-yl)pyrimidin-2-yl)amino)-2-((2-(dimethylamino)ethyl)amino)-4-methoxyphenyl)acrylamide] | – |
| 51.9 | 1370 | 23.6 | – | – | – | – | – | – | – | – | – | – | C=CC(=O)Nc1cc(Nc2nccc(-c3cc(C#N)c4c(c3)c(C)cn4C)n2)c(OC)cc1N(C)CCNC [Example 29, N-(5-((4-(7-Cyano-1,3-dimethyl-1H-indol-5-yl)pyrimidin-2-yl)amino)-4-methoxy-2-(methyl(2-(methylamino)ethyl)amino)phenyl)acrylamide] | – |

From patent US20200131176A1, “SELECTIVE INHIBITORS OF CLINICALLY IMPORTANT MUTANTS OF THE EGFR TYROSINE KINASE” (CS Pharmatech Limited, priority 2017, published 2020)
